Columns and labels:
bovine GDH [1] = biological target: T1, bovine GDH (Bos taurus, UniProt P00366); assay: Trypsin degradation assay of bovine GDH (SDS-PAGE gel); type: biochemical; details: 20 μg/mL trypsin; for effect on trypsin digestion of Bo.GDH: low and high concentrations (GTP 10 or 50 mM; EGCG 0.05 or 5 mM), 37 °C 1 h
T1 construct: purchased
Protocol: (§1) Trypsin (final concentration 20 μg/mL) were mixed with 1 mg/mL (final concentration) hGDH-H454Y or bovine-GDH or BSA, respectively, in Eppendorf (EP) tubes in a phosphate buffer (pH8; 10 mM Na3PO4, 50 mM K3PO4, 100 mM NH4HCO3, 0.1% Tween80 and 0.1% Tween). Then proteins were subjected to digestion in a wet chamber at 37 °C for 1 h. Each sample was analyzed by denaturing SDS-PAGE gel. All experiments were repeated 3 times.
(§2) 2.5 mg/mL bovine GDH (final concentration) or 2.5 mg/mL BSA proteins were mixed with various compounds (10 mM or 50 mM GTP; 0.05 mM or 5 mM EGCG) in EP tubes at room temperature for 1 h. To each tube, 20 μg/mL trypsin was added, and the reaction was carried out in a wet chamber at 37 °C for 1 h. Samples were analyzed by both denaturing SDS-PAGE gel and native-PAGE gel. All experiments were repeated 3 times.
(§3) The dried gel was placed in the imager and photographed after the bands were clear. The gray value of the bands was calculated on a uniform background using Image-J software (1.53a). The ratio of the gray value of the strips under each experimental condition to the gray value of the control strips was calculated, as it is the relative gray value of the strips under that experimental condition.

BSA = biological target: T2, BSA (Bos taurus, UniProt P02769); assay: Trypsin degradation assay of BSA (SDS-PAGE gel); type: biochemical, bovine
T2 construct: purchased Biosharp
Protocol: as §1, §2, §3

bovine GDH hexamer = biological target: T3, bovine GDH hexamer (Bos taurus, UniProt P00366); assay: Native-PAGE gel analysis of interaction of EGCG, bovine GDH and trypsin; type: biochemical
T3 construct: purchased
Text: To further understand the mechanism of EGCG promoting GDH protein degradation, we investigated the interactions among EGCG, GDH, and trypsin by native gel analysis. Because the bovine GDH protein sequence shares 98% homology with the human GDH sequence and 100% homology similarity in the substrate and regulatory binding sites, we used bovine GDH as a substitute for wild-type human GDH in our studies. […] Taken together, the mechanism might be the following: binding of EGCG to hexametric GDH breaks down the hexamer into monomers, and further EGCG–trypsin complex facilitates the GDH degradation.
as §2, §3

bovine GDH [2] = biological target: T1, bovine GDH; assay: GDH inhibition assay (EZMTT detection); type: biochemical; details: for increase in IC50 on increasing GDH concentration by 8 times: 0.3 to 2.5 mg/mL GDH
Protocol: Since both GTP and EGCG are known allosteric GDH inhibitors, we tested their dose-dependent inhibition of different levels of GDH protein. […] EGCG inhibition of GDH is less affected by the GDH enzyme concentration.
[…] After 0.5 h pre-incubation, a mixture of Glu (10 mM final), NADP^+ ([…]), and the EZMTT detection reagent were added to each well, and the reaction was carried out at room temperature for 1 h before the absorbance measurement at 450 nm. To exclude assay artifacts, controls with no GDH were also used, and all experiments were carried out in triplicate and repeated 3 times.

hGDHH454Y [3] = biological target: T4, hGDHH454Y (Homo sapiens, UniProt P00367, H507Y); assay: Biolayer interference-based binding assay (Ni-NTA biosensor), hGDHH454Y; details: His-tagged hGDHH454Y 20 μg/mL on Ni-NTA biosensor; read-out: estimated KD
T4 construct: made in house; host or cells: E. coli BL21 codon plus (pET-30a)
Protocol: (§4) After immobilization of His-tagged wild-type GDH or hGDHH454Y (20 μg/mL) on a Ni-NTA biosensor, the probe was immersed in a series of dilutions of EGCG to measure binding.
(§5) The inhibitor/substrate binding assays were performed in 3 steps: step one is coating the Ni-NTA biosensor with the human wild type and the mutant GDH proteins (20 μg/mL) for 30 min; step two is dipping the coated individual sensor into a series dilution of substrates or inhibitors, such as EGCG (0, 1, 10, 100, 1000, 10000 μM; 10-fold dilution) or trypsin (0, 0.08, 0.25, 0.75, 2.25, 6.75 μM; 3-fold dilution) for 100 s, to obtain the on-rate (kon); step three is dipping to wash with phosphate-buffered saline (PBS) for 100 s. to measure the off-rate (koff). The KD was calculated by dividing […].

hGDHH454Y [4] = assay: as above; set-up: species or system human; details: KD hGDHH454Y versus wild-type
Protocol: as §4, §5

hGDHH454Y [5] = biological target: T4, hGDHH454Y; assay: Trypsin degradation assay of hGDHH454Y (SDS-PAGE gel); type: biochemical
Protocol: as §1, §2, §3

wild-type hGDH = biological target: T5, wild-type hGDH (Homo sapiens, UniProt P00367); assay: Biolayer interference-based binding assay (Ni-NTA biosensor), wild-type hGDH; details: His-tagged wild-type hGDH 20 μg/mL on Ni-NTA biosensor; read-out: estimated KD
T5 construct: confirming that these are the full-length wild-type hGDH; made in house; host or cells: E. coli BL21 (pET-30a)
Protocol: as §4, §5

[6] = high concentrations: 50 mM GTP, 5 mM EGCG
[7] = lower concentrations: GTP 10 mM, EGCG 0.05 mM
[8] = 20 μg/mL trypsin, 1 mg/mL protein, 1 h

T4 sequence (P00367 54-558 H507Y): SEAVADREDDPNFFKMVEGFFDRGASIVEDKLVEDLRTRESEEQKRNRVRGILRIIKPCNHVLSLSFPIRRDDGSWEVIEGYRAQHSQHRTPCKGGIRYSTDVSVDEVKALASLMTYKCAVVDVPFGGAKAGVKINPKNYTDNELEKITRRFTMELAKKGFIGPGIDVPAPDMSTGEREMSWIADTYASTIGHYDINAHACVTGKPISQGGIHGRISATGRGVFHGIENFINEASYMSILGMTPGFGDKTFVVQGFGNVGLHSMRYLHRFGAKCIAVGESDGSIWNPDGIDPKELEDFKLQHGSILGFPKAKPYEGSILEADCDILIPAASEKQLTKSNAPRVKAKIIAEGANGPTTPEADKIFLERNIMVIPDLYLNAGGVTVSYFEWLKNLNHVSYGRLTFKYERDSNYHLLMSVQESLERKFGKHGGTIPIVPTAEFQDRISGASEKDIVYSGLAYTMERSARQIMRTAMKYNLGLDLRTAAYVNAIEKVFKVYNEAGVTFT
T3 sequence (P00366 58-558): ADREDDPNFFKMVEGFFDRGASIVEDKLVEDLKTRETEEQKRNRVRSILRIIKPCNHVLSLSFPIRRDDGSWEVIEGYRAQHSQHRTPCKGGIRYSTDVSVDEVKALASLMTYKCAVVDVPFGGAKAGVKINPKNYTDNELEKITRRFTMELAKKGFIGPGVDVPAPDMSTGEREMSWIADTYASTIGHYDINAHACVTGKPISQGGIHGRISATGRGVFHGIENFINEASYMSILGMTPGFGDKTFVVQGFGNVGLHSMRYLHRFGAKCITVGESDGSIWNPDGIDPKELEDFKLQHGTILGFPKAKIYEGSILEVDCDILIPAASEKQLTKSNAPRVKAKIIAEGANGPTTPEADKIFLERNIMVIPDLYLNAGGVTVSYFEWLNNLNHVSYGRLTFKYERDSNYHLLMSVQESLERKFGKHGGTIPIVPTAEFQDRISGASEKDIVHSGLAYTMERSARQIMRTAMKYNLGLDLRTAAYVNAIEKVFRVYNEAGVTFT
T1 sequence (P00366 58-558): as above
T2 sequence (P02769 25-607): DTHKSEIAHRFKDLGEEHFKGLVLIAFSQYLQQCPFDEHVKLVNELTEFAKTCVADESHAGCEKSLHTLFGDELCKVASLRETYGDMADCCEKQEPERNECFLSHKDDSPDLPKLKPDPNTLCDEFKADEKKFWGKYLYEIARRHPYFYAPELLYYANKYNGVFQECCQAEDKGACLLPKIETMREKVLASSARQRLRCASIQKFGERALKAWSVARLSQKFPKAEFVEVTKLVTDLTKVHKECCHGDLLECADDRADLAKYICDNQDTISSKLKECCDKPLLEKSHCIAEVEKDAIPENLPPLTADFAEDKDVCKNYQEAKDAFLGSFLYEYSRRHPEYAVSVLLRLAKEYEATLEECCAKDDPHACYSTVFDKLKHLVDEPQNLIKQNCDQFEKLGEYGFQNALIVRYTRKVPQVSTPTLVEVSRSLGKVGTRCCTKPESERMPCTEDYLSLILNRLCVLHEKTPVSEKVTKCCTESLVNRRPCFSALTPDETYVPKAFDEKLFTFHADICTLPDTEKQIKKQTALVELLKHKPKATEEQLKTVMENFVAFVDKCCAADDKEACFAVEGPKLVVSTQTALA
T5 sequence (P00367 54-558): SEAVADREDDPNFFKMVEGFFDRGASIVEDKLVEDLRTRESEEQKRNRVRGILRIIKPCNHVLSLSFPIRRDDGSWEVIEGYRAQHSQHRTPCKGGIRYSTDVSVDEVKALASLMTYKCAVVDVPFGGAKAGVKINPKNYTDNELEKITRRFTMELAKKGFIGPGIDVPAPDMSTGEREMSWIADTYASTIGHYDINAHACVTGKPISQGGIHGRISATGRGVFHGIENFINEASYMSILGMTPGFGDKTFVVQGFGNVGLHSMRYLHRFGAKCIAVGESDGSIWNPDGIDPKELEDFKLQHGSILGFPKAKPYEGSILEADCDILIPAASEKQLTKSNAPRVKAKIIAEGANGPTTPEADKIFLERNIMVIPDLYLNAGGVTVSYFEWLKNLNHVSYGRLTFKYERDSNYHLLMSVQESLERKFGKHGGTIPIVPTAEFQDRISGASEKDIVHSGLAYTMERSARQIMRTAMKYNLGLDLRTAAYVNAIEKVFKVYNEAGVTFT

| effect on trypsin digestion of BSA (BSA; [6]) | effect on trypsin digestion of BSA (BSA; [7]) | effect on hexamers of bovine GDH (bovine GDH hexamer; 5 mM EGCG) | increase in IC50 on increasing GDH concentration by 8 times (bovine GDH [2]) | IC50 (bovine GDH [2]; bovine GDH 0.3 mg/mL) | IC50 (bovine GDH [2]; bovine GDH 2.5 mg/mL) | Kd (hGDHH454Y [3]) | fold stronger affinity (KD) for wild-type GDH than for the H454Y mutant (hGDHH454Y [4]) | effect on hGDHH454Y hydrolysis by trypsin (hGDHH454Y [5]; 5 mM EGCG) | Kd (wild-type hGDH) | effect on hGDHH454Y hydrolysis by trypsin (hGDHH454Y [5]; GTP up to 50 mM) | degradation by trypsin alone (bovine GDH [1]; 1 mg/mL protein, 1 h) | degradation by trypsin alone (BSA; [8]) | effect on hexamers of bovine GDH (bovine GDH hexamer; trypsin 20–500 μg/mL) | degradation by trypsin alone (hGDHH454Y [5]; [8]) | Compound | effect on trypsin digestion of Bo.GDH (bovine GDH [1]) | monomeric GDH degradation by trypsin (bovine GDH hexamer; 5 mM EGCG added to GDH and 20 μg/mL trypsin) |
| --- | --- | --- | --- | --- | --- | --- | --- | --- | --- | --- | --- | --- | --- | --- | --- | --- | --- |
| promoted BSA degradation | essentially no significant effect | converted to monomers | 50 fold | 2.7 µM | 138 µM | 68 µM | 17 fold | promote | 4.2 µM |  |  |  |  |  | O=C(O[C@@H]1Cc2c(O)cc(O)cc2O[C@@H]1c1cc(O)c(O)c(O)c1)c1cc(O)c(O)c(O)c1 [EGCG, (−)-cis-2-(3,4,5-trihydroxyphenyl)-3,4-dihydro-1(2H)-benzopyran-3,5,7-triol 3-gallate] | greatly increased trypsin digestion in a dose-dependent manner | more monomeric GDH degradation was observed |
| prevented BSA digestion | essentially no significant effect |  | 1000 fold | 16 µM | 16900 µM |  |  |  |  | no effect |  |  |  |  | Nc1nc2c(ncn2[C@@H]2O[C@H](COP(=O)(O)OP(=O)(O)OP(=O)(O)O)[C@@H](O)[C@H]2O)c(=O)[nH]1 [GTP] | prevented the trypsin digestion |  |
|  |  |  |  |  |  | 1500 µM | 10^9 fold |  | < 1e-06 µM |  | significant hydrolysis | significant hydrolysis | converted to monomers | did not show observable degradation | Trypsin |  |  |
